Data reported in ChEMBL document CHEMBL1201862, “PubChem BioAssay data set” (2004).
Activity calls are given as the source filed them.

Legend:
[1] = molecular target: G-protein coupled receptor 55 (Homo sapiens, UniProt Q9Y2T6); experiment: inhibition of LPI-stimulated GPR55 beta-arrestin translocation – imaging, U2OS, beta-arrestin-GFP, LPI agonist, primary screen (AID 2013); assay type: functional;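 note: antagonist potency measured as reduced agonist-driven arrestin aggregation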
cells [2] = assay type: functional, cell-based
cells [3] = assay type: functional, cell-based; remark: listed apart in the source
[4] = viability loss of HPDE-C7K cells – cell-based, fluorescence, HTS, primary screen (AID 431); assay type: functional; conditions: Homo sapiens
[5] = HPDE-C7 pancreatic duct cell viability loss – fluorescence, HTS (AID 430); assay type: functional, cell-based; conditions: Homo sapiens
[6] = molecular target: T1, Oxysterols receptor LXR-beta (Homo sapiens, UniProt P55055); assay type: functional, cell-based;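 note: agonist activity at LXR measured by a cell-based luminescence readout across a dose range, run as a counterscreen for daf-12 agonists; HEK293 cells with Gal4-LXR fusion and GAL4-driven luciferase reporter; potency for activation of Gal4-LXR reporter so compounds are agonists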
T1 sequence (P55055 whole entry): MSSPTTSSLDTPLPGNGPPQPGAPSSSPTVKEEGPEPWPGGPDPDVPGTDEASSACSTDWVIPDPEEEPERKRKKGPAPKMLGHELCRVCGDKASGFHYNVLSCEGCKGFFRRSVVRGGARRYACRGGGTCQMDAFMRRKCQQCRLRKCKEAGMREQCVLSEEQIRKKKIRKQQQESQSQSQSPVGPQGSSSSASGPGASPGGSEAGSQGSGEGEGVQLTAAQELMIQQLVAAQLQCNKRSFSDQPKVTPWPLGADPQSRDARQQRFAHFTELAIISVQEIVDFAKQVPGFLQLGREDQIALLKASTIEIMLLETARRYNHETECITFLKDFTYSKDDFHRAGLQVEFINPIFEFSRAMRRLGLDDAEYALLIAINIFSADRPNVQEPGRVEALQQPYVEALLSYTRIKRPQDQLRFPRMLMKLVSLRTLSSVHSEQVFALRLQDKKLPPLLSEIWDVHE

[7] = blockers of HIV-1 ZM109 envelope-driven cell-cell fusion – HeLa effector, CEM target cells, luciferase, cherry-pick, dose response (AID 652058); assay type: functional, cell-based;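 note: luciferase signal from HIV-1 Env mediated cell-cell fusion of effector and target cells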
[8] = blockers of HIV-1 envelope-mediated cell-cell fusion – cherry-pick, dose response (AID 652057); assay type: functional, cell-based
[9] = Luminescence Cell-Based Dose Retest to Confirm Inhibitors of Cancer Stem Cells. [Related pubchem assays (depositor defined):AID2717, AID2721]; assay type: functional; conditions: Homo sapiens
[10] = viability loss in CEM21 cells – cell-based, CellTiter-Glo luminescence, cherry-picked, cytotoxicity control for viral fusion inhibitor project, dose response (AID 652042); assay type: functional;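 note: potency for signal decrease meaning cytotoxicity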
Streptokinase A = molecular target: T2, Streptokinase A (Streptococcus pyogenes serotype M1, UniProt P10520); experiment: viability-normalized secreted streptokinase activity reduction – plasminogen activation absorbance, OD405, dose response (AID 1914); assay type: functional, Streptococcus pyogenes M1 GAS;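 note: secreted streptokinase activity via plasminogen activation per viability signal from cell pellet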
T2 sequence (P10520 whole entry): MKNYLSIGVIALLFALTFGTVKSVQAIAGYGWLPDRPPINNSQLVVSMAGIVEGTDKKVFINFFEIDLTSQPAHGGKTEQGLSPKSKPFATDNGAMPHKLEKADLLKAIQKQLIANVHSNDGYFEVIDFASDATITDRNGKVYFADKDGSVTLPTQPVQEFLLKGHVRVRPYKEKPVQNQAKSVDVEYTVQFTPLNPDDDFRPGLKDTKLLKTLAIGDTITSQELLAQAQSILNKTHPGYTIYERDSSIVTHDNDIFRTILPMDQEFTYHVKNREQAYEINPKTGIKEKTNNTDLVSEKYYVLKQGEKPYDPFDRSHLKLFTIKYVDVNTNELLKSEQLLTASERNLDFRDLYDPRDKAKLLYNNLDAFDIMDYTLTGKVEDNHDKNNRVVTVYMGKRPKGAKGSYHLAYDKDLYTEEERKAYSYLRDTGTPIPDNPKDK

[11] = tested on: Streptococcus sp. 'group A'; experiment: Streptococcus pyogenes SK(-)GAS viability under kanamycin – luminescence, BacTiterGlo, confirmation, counter-screen for streptokinase expression inhibitor project, dose response (AID 1900); assay type: functional, organism-based
Streptococcus = experiment: GAS UMAA2166 growth inhibition – luminescence, BacTiterGlo, counter-screen for streptokinase expression inhibitor project, dose response (AID 1915); assay type: functional, organism-based;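 note: potency for reduction of bacterial viability or growth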
[12] = off-target signal loss in HeLa-CEM21 co-culture – HeLa F-luc CTL cells, cherry-picked, counter-screen for HIV-1 Env fusion inhibitor project, dose response (AID 652040); assay type: functional, cell-based;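 note: potency for signal decrease marking cytotoxic or nonspecific inhibition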
[13] = HIV-1 AD8 envelope cell-cell fusion blockers – cherry-pick, dose response (AID 652062); assay type: functional, cell-based;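 note: luciferase signal from cell-cell fusion driven by HIV-1 clade B AD8 Env; potency is for inhibitors of fusion seen as a drop in luminescence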
[14] = cytotoxicity toward HT-29 cells – cell-based, CellTiter-Glo luminescence, IC50, dose response (AID 1117330); assay type: functional
[15] = Reduced DLD-1 viability, concentration-response, CellTiter-Glo luminescence (AID 1117352); assay type: functional
[16] = CellTiter-Glo luminescence survival assay, SW480 colon tumor line, concentration-response curve, half-maximal inhibitory concentration (AID 1117338); assay type: functional
[17] = cytotoxicity toward Colo320 cells – cell-based, CellTiter-Glo luminescence, IC50, dose response (AID 1117334); assay type: functional; conditions: COLO 320
[18] = HCT116 cell viability decrease, GSK3B pretreatment – CellTiter-Glo, IC50, dose response (AID 1117339); assay type: functional; conditions: HCT-116
[19] = cytotoxicity toward HCT116 cells – cell-based, CellTiter-Glo luminescence, IC50, dose response (AID 1117332); assay type: functional; conditions: HCT-116
[20] = SNU-C1 cell viability reduction, dose response, CellTiter-Glo luminescence (AID 1117323); assay type: functional, cell-based
[21] = RKO cell viability reduction, dose response, CellTiter-Glo luminescence (AID 1117322); assay type: functional

Sequence of G-protein coupled receptor 55 (Q9Y2T6 whole entry): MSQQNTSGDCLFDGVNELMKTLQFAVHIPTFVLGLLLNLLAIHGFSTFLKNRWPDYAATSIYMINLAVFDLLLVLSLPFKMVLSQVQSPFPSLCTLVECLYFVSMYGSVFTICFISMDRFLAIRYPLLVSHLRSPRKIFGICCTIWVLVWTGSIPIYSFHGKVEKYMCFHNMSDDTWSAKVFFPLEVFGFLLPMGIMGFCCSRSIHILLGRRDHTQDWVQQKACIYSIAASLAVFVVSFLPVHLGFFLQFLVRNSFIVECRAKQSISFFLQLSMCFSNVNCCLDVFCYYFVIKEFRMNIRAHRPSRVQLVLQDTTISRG

For `COc1ccc(C2c3ccc(O)cc3Oc3ncn(CC(C)C)c(=N)c32)cc1` (stereo not drawn), the IC50 [1] was 2.27 µM (active).
For `Cc1sc2ncnc(Sc3nnnn3-c3ccc(Cl)cc3)c2c1C`, the EC50 (cells [2]) was > 350 µM (not active), the EC50 (cells [3]) was > 350 µM (not active) and the EC50 [4] was 5.19 µM (active). For the same molecule, the EC50 [5] was 4.61 µM (active).
For `CCc1ccc(C2CC(c3ccco3)=NN2S(C)(=O)=O)cc1` (stereo not drawn), the EC50 [6] was > 67.5 µM (inactive).
In the case of `CN1CC(c2ccccc2)C2(SC(=S)N(Cc3ccco3)C2=O)C12C(=O)Nc1ccccc12` (stereo not drawn), the AC50 [7] is reported as 18.4 µM (active), the AC50 [8] is reported as 17.6 µM (active) and the AC50 [9] is reported as 4.4 µM (active). The AC50 [10] was 20.3 µM (active).
For `CCCOC(=O)c1ccc(Oc2c(C)n[nH]c2-c2ccc(OC)cc2O)cc1`, the EC50 (Streptokinase A) was > 150 µM (not active), the EC50 [11] was 14.1 µM (active) and the EC50 [4] was 6.36 µM (active). The EC50 (Streptococcus) was 28.5 µM (active) and the EC50 [5] was 12.2 µM (active).
With `c1ccc(Cc2cnc(N3CCN(Cc4csc5ccccc45)CC3)nc2)cc1` the AC50 [12] was 65 µM (active), the AC50 [8] was 2.86 µM (active) and the AC50 [13] was 2.98 µM (active). The AC50 [10] was 47.5 µM (active).
For `C=CC(C)(O)CCC=C(C)CCC=C(C)C` (stereo not drawn), the IC50 [14] was > 20 µM (inactive), the IC50 [15] was > 20 µM (inactive) and the IC50 [16] was > 20 µM (inactive). The IC50 [17] was 10.3 µM (inactive), the IC50 [18] was > 20 µM (inactive) and the IC50 [19] was > 20 µM (inactive). The IC50 [20] was > 20 µM (inactive) and the IC50 [21] was > 20 µM (inactive).
With `CC/C(=N\NC(=O)c1ccoc1C)c1ccc(C)o1` the EC50 [6] was > 67.5 µM (inactive).
